Source: DBAASP
Converted amounts (≈) assume the structure as drawn.

Tests used:
Experiment in all cases: ≥ marks a high value that may be exact or a test limit, other limits are often not marked, values filed in µg/mL are converted to µM
[1] = test system: Pseudomonas aeruginosa ATCC 9027
[2] = test system: Staphylococcus aureus ATCC 6538
Candida albicans = test system: Candida albicans
[3] = test system: Candida albicans ATCC 90028
[4] = test system: Escherichia coli ATCC 25922
[5] = test system: Staphylococcus aureus ATCC 25923
Escherichia coli = test system: Escherichia coli
Staphylococcus aureus = test system: Staphylococcus aureus
Escherichia coli UB1005 = test system: Escherichia coli UB1005
[6] = test system: Salmonella enterica subsp. enterica serovar Typhimurium C77-31
[7] = test system: Staphylococcus aureus ATCC 29213
[8] = test system: Staphylococcus epidermidis ATCC 12228
Bacillus subtilis = test system: Bacillus subtilis
[9] = test system: Pseudomonas aeruginosa ATCC 27853

SMILES | MIC [1] | MIC [2] | MIC [3] | MIC [4] | also measured
CC(C)C[C@H](NC(=O)[C@H](C)NC(=O)[C@H](CCCCN)NC(=O)[C@H](C)NC(=O)[C@H](CC(C)C)NC(=O)[C@H](CCCCN)NC(=O)[C@H](CCCCN)NC(=O)[C@H](C)NC(=O)[C@H](CC(C)C)NC(=O)[C@H](CCCCN)NC(=O)[C@H](CCCCN)NC(=O)[C@H](C)NC(=O)[C@@H](N)Cc1ccccc1)C(N)=O [FAKKLAKKLAKAL] | 3.5 µM (≈ 5 µg/mL) | 10.5 µM (≈ 15 µg/mL) | – | – | –
CC(C)C[C@H](NC(=O)[C@H](CCCCN)NC(=O)[C@H](CCCCN)NC(=O)[C@H](C)NC(=O)[C@H](CC(C)C)NC(=O)[C@H](CCCCN)NC(=O)[C@H](C)NC(=O)[C@H](CC(C)C)NC(=O)[C@H](CCCCN)NC(=O)[C@H](CCCCN)NC(=O)[C@H](C)NC(=O)[C@@H](N)Cc1ccccc1)C(N)=O [FAKKLAKLAKKL] | 18.4 µM (≈ 25 µg/mL) | 73.6 µM (≈ 99.9 µg/mL) | – | – | –
CC(C)C[C@H](NC(=O)[C@H](C)NC(=O)[C@H](CCCCN)NC(=O)[C@H](CCCCN)NC(=O)[C@H](Cc1ccccc1)NC(=O)[C@H](C)NC(=O)[C@H](CCCCN)NC(=O)[C@H](C)NC(=O)[C@H](CC(C)C)NC(=O)[C@H](CC(C)C)NC(=O)[C@H](CCCCN)NC(=O)[C@H](C)NC(=O)[C@@H](N)Cc1ccccc1)C(N)=O [FAKLLAKAFKKAL] | 10.4 µM (≈ 15 µg/mL) | 34.5 µM (≈ 50 µg/mL) | – | – | –
CC(C)C[C@H](NC(=O)[C@H](CCCCN)NC(=O)[C@H](CCCCN)NC(=O)[C@H](C)NC(=O)[C@H](CC(C)C)NC(=O)[C@H](CCCCN)NC(=O)[C@H](C)NC(=O)[C@H](CC(C)C)NC(=O)[C@H](CC(C)C)NC(=O)[C@H](CCCCN)NC(=O)[C@H](C)NC(=O)[C@@H](N)Cc1ccccc1)C(N)=O [FAKLLAKLAKKL] | 149 µM (≈ 200 µg/mL) | 7.44 µM (≈ 9.99 µg/mL) | – | – | –
CC(C)C[C@H](NC(=O)[C@H](C)NC(=O)[C@H](CCCCN)NC(=O)[C@H](C)NC(=O)[C@H](CC(C)C)NC(=O)[C@H](C)NC(=O)[C@H](CCCCN)NC(=O)[C@H](C)NC(=O)[C@H](C)NC(=O)[C@H](C)NC(=O)[C@H](CCCCN)NC(=O)[C@H](C)NC(=O)[C@@H](NC(=O)[C@H](C)NC(=O)[C@H](CCCCN)NC(=O)[C@H](C)NC(=O)[C@H](CC(C)C)NC(=O)[C@@H](N)Cc1ccccc1)C(C)C)C(=O)O [FLAKAVAKAAAKALAKAL] | – | – | – | – | MIC (Candida albicans): 82 µM (≈ 144 µg/mL)
CC[C@H](C)[C@@H]1NC(=O)[C@H](Cc2ccccc2)NC(=O)[C@@H](NC(=O)[C@H](Cc2ccccc2)NC(=O)[C@@H](NC(=O)[C@H](CCCCN)NC(=O)[C@@H]2CCCN2C(=O)[C@H](CC(C)C)NC(=O)[C@@H](NC(=O)[C@H](CCCCN)NC(=O)[C@H](C)NC(=O)[C@H](C)NC(=O)[C@@H](NC(=O)[C@H](CO)NC(=O)[C@H](C)NC(=O)[C@@H](NC(=O)[C@@H](NC(=O)[C@@H]2CCCN2C(=O)[C@H](CC(C)C)NC(=O)[C@@H](N)Cc2ccccc2)C(C)C)[C@@H](C)CC)C(C)C)C(C)C)C(C)C)CSSC[C@@H](C(=O)O)NC(=O)[C@H](CCCCN)NC(=O)[C@H](CCCCN)NC(=O)[C@H]([C@@H](C)O)NC1=O [FLPVIASVAAKVLPKVFCFITKKC] | – | – | 3 µM (≈ 7.86 µg/mL) | 50 µM (≈ 131 µg/mL) | MIC [5]: 1.5 µM (≈ 3.93 µg/mL)
CC[C@H](C)[C@H](NC(=O)CNC(=O)[C@H](CCCCN)NC(=O)[C@@H](NC(=O)[C@H](CC(C)C)NC(=O)[C@H](CO)NC(=O)CNC(=O)[C@H](CC(C)C)NC(=O)CNC(=O)[C@H](C)NC(=O)[C@H](CCCCN)NC(=O)[C@H](CC(C)C)NC(=O)[C@@H](NC(=O)[C@H](CCC(=O)O)NC(=O)[C@H](CCCCN)NC(=O)[C@H](Cc1ccccc1)NC(=O)CN)C(C)C)C(C)C)C(=O)N1CCC[C@H]1C(=O)N[C@@H](C)C(=O)N[C@@H](Cc1cnc[nH]1)C(=O)N[C@H](C(=O)N[C@@H](C)C(=O)N[C@@H](CC(N)=O)C(N)=O)C(C)C [GFKEVLKAGLGSLVKGIPAHVAN] | – | – | – | – | MIC (Candida albicans): > 400 µM; MIC (Escherichia coli): 217 µM (≈ 500 µg/mL); MIC (Staphylococcus aureus): 434 µM (≈ 1000 µg/mL)
CC[C@H](C)[C@H](NC(=O)[C@H](CCCCN)NC(=O)[C@H](CC(=O)O)NC(=O)[C@H](CC(C)C)NC(=O)[C@@H](NC(=O)[C@H](CC(N)=O)NC(=O)[C@@H](NC(=O)[C@H](Cc1ccccc1)NC(=O)[C@H](CC(C)C)NC(=O)[C@H](CCCCN)NC(=O)[C@H](CCCCN)NC(=O)CN)C(C)C)C(C)C)C(=O)N[C@@H](CCCN=C(N)N)C(=O)N[C@H]1CSSC[C@@H](C(=O)O)NC(=O)CNC(=O)CNC(=O)[C@H](C)NC(=O)[C@H](C(C)C)NC(=O)[C@H](CCCCN)NC1=O [GKKLFVNVLDKIRCKVAGGC] | – | – | ≥ 100 µM | – | –
CC[C@H](C)[C@H](NC(=O)[C@H](CCCCN)NC(=O)CNC(=O)[C@@H](NC(=O)[C@@H](NC(=O)[C@H](CO)NC(=O)CNC(=O)[C@H](C)NC(=O)[C@H](CCCCN)NC(=O)[C@H](CO)NC(=O)[C@H](C)NC(=O)[C@H](CCSC)NC(=O)CN)[C@@H](C)CC)C(C)C)C(=O)N[C@@H](C)C(=O)N[C@@H](CCCCN)C(=O)N[C@H](C(=O)N[C@@H](C)C(=O)N[C@@H](CC(C)C)C(=O)NCC(=O)N[C@@H](C)C(=O)N[C@@H](CC(C)C)C(N)=O)[C@@H](C)CC [GMASKAGSIVGKIAKIALGAL] | – | – | 25 µM (≈ 48.9 µg/mL) | 25 µM (≈ 48.9 µg/mL) | MIC [5]: 50 µM (≈ 97.8 µg/mL)
CC[C@H](C)[C@H](NC(=O)[C@H](Cc1c[nH]c2ccccc12)NC(=O)[C@H](CCCCN)NC(=O)[C@H](CC(C)C)NC(=O)[C@@H](NC(=O)[C@H](CCCCN)NC(=O)CNC(=O)[C@@H](NC(=O)[C@@H](NC(=O)[C@H](CCCCN)NC(=O)[C@H](CC(C)C)NC(=O)[C@@H](NC(=O)[C@@H](NC(=O)[C@H](CCCN=C(N)N)NC(=O)[C@@H](NC(=O)[C@@H](NC(=O)[C@H](CCCCN)NC(=O)[C@H](CCCN=C(N)N)NC(=O)[C@H](CC(C)C)NC(=O)[C@@H](NC(=O)[C@H](CCCN=C(N)N)NC(=O)[C@H](Cc1ccccc1)NC(=O)[C@@H](NC(=O)CN)C(C)C)C(C)C)C(C)C)[C@@H](C)O)C(C)C)C(C)C)C(C)C)[C@@H](C)CC)C(C)C)C(N)=O [GVFRVLRKVTRVVLKVIGKVLKWI] | – | – | – | 2 µM (≈ 5.61 µg/mL) | MIC (Escherichia coli UB1005): 4 µM (≈ 11.2 µg/mL); MIC [6]: 4 µM (≈ 11.2 µg/mL); MIC [5]: 2 µM (≈ 5.61 µg/mL); MIC [7]: 2 µM (≈ 5.61 µg/mL); MIC [8]: 2 µM (≈ 5.61 µg/mL)
CC[C@H](C)[C@H](N)C(=O)N[C@@H](CC(N)=O)C(=O)N[C@@H](Cc1c[nH]c2ccccc12)C(=O)N[C@@H](CC(C)C)C(=O)N[C@@H](CCCCN)C(=O)N[C@@H](CC(C)C)C(=O)NCC(=O)N[C@@H](CCCCN)C(=O)N[C@@H](CCCCN)C(=O)N[C@@H](CCSC)C(=O)N[C@@H](CCSC)C(=O)N[C@@H](CO)C(=O)N[C@@H](C)C(=O)N[C@H](C(N)=O)[C@@H](C)CC [INWLKLGKKMMSAI] | – | – | – | – | MIC (Bacillus subtilis): ≥ 35 µM; MIC (Escherichia coli): 70 µM (≈ 114 µg/mL)
CC[C@H](C)[C@H](N)C(=O)N[C@@H](CC(N)=O)C(=O)N[C@@H](Cc1c[nH]c2ccccc12)C(=O)N[C@@H](CO)C(=O)N[C@@H](CO)C(=O)N[C@H](C(=O)N[C@@H](Cc1ccccc1)C(=O)N[C@@H](CCC(=O)O)C(=O)N[C@@H](CO)C(=O)N[C@H](C(=O)N[C@@H](CCCCN)C(=O)N[C@@H](CC(N)=O)C(=O)N[C@@H](CC(C)C)C(=O)N[C@H](C(N)=O)C(C)C)C(C)C)[C@@H](C)CC [INWSSIFESVKNLV] | – | – | – | – | MIC (Bacillus subtilis): ≥ 87.5 µM; MIC (Escherichia coli): 100 µM (≈ 163 µg/mL)
CC[C@H](C)[C@H](NC(=O)CNC(=O)[C@H](CC(C)C)NC(=O)[C@H](CCCCN)NC(=O)[C@H](C)NC(=O)[C@H](CC(C)C)NC(=O)[C@H](C)NC(=O)[C@@H](NC(=O)[C@H](CCCCN)NC(=O)[C@H](C)NC(=O)[C@@H](NC(=O)[C@@H](N)CCCCN)[C@@H](C)CC)C(C)C)C(=O)NCC(=O)N[C@@H](C)C(=O)N[C@H](C(=O)N[C@@H](CC(C)C)C(=O)N[C@@H](CCCCN)C(=O)N[C@H](C(=O)N[C@@H](CC(C)C)C(=O)N[C@H](C(=O)N[C@H](C(=O)NCC(=O)N[C@@H](CC(C)C)C(N)=O)[C@@H](C)O)[C@@H](C)O)C(C)C)C(C)C [KIAKVALAKLGIGAVLKVLTTGL] | 87.8 µM (≈ 200 µg/mL) | 87.8 µM (≈ 200 µg/mL) | – | – | –
CC[C@H](C)[C@H](NC(=O)[C@H](CCCN=C(N)N)NC(=O)[C@@H](N)CCCCN)C(=O)N[C@@H](C)C(=O)N[C@@H](CCC(N)=O)C(=O)N[C@@H](CCCN=C(N)N)C(=O)N[C@H](C(=O)N[C@@H](CCCCN)C(=O)N[C@@H](C)C(=O)N[C@@H](Cc1ccccc1)C(=O)N[C@@H](CC(C)C)C(=O)N[C@@H](CCCN=C(N)N)C(=O)O)[C@@H](C)CC [KRIAQRIKAFLR] | – | – | 10 µM (≈ 15 µg/mL) | 2.5 µM (≈ 3.75 µg/mL) | MIC [9]: 5 µM (≈ 7.5 µg/mL); MIC [7]: 20 µM (≈ 30 µg/mL)
CC[C@H](C)[C@H](NC(=O)[C@H](CCCN=C(N)N)NC(=O)[C@@H](N)CCCCN)C(=O)N[C@H](C(=O)N[C@@H](CCC(N)=O)C(=O)N[C@@H](CCCN=C(N)N)C(=O)N[C@@H](CCCCN)C(=O)N[C@@H](CCCCN)C(=O)N[C@@H](CC(=O)O)C(=O)N[C@@H](CCCCN)C(=O)N[C@@H](CCCCN)C(=O)N[C@@H](CCCN=C(N)N)C(=O)O)C(C)C [KRIVQRKKDKKR] | – | – | ≥ 40 µM | 20 µM (≈ 31.7 µg/mL) | MIC [9]: 40 µM (≈ 63.3 µg/mL); MIC [7]: 40 µM (≈ 63.3 µg/mL)
